Experimental findings from PMC9060465 (Proceedings of the National Academy of Sciences of the …, 2022) are described below.

In one test the target is T1, human GIPR (Homo sapiens, UniProt P48546).
T1 construct: expressed in transfected cells; host or cells: HEK293
T1 sequence (P48546 22-466): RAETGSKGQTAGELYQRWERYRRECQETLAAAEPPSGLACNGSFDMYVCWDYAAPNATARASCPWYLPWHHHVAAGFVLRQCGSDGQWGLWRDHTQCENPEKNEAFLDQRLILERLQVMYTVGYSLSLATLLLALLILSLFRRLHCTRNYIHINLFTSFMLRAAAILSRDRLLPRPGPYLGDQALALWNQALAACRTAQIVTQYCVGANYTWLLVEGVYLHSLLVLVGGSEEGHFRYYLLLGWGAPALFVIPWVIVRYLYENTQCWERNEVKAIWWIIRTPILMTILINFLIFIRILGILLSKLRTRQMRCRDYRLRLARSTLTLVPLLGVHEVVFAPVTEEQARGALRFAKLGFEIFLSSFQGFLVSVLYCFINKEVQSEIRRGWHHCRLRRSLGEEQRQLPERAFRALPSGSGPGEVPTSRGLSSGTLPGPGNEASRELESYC
Nature of the test: GIPR Gαs [35S]GTPγS binding, GIPR-expressing membranes. It is filed as biochemical. Here is the method: (§1) Fig. 4. […] (B) Ligand-induced GTPγS binding of Gαs was performed using the GIPR-expressing membranes. […] (C) Agonist-stimulated cAMP production was measured in human GIPR expressing HEK293 cells. […] (E) Ligand-induced GTPγS binding of Gαs was performed using the GLP-1R-expressing membranes. […] (F) Agonist-stimulated cAMP production was measured in human GLP-1R-expressing HEK293 cells. […] Data presented are representative of n ≥ 3 independent experiments. Summarized data are shown in SI Appendix, Table 2. log M; log Molar.
We note that the albumin-binding propensity of fatty acid-modified peptides can confound a pharmacological comparison of molecules, given the common use of albumin and serum as nonspecific blocking agents in biological assays. Therefore, to obviate this, entirely albumin-free assays supplemented with bovine casein or bacitracin were used to prevent nonspecific binding ([10]).
Functional potency (EC50)
and efficacy (% Top) of ligands to induce Gα s -GTPγS binding and cAMP accumulation in HEK293 cells expressing GIPR were determined. The equilibrium affinity (KD) of
ligands for the immobilized ectodomain of the GIPR were quantified by surface plasmon resonance. […]
SPR data were analyzed using T200 evaluation software (Cytiva). All data are presented as geometric means with SEM and n values
(§2) according to established practices. ND, not determined. NA, not applicable.

Test [1] deals with T2, GLP-1R (Homo sapiens, UniProt P43220). Description: Ligand-induced GLP-1R internalization, SNAP-GLP-1R HEK293 cells. It is filed as cell-based.
Target sequence in this assay (P43220 24-463): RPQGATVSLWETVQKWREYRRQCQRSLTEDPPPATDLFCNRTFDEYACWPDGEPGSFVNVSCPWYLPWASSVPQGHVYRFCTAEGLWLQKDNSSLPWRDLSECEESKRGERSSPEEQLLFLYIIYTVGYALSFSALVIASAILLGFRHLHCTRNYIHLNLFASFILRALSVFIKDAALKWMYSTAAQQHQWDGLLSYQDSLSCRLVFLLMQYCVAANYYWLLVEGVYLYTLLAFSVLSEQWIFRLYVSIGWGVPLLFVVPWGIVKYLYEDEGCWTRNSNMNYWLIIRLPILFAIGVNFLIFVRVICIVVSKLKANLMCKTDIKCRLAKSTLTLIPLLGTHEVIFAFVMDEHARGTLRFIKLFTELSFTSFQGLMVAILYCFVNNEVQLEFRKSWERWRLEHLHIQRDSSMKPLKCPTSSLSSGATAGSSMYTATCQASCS
The target in test [2] is T2, GLP-1R. Description: GLP-1R Gαs [35S]GTPγS binding, GLP-1R-expressing membranes. The format is biochemical. On the set-up: expressed in transfected cells; host or cells: HEK293. As for the experimental part:
as §1
(§3) We note that the albumin-binding propensity of fatty acid-modified peptides can confound a pharmacological comparison of molecules, given the common use of albumin and serum as nonspecific blocking agents in biological assays. Therefore, to obviate this, entirely albumin-free assays supplemented with bovine casein or bacitracin were used to prevent nonspecific binding ([10]). […]
(§4) Middle Panel: The affinity (Ki) of ligands for the GLP-1R was […]
(§5) Functional potency (EC50) and efficacy (% Top) of ligands to induce Gα s-GTPγS binding and cAMP accumulation in HEK293 cells expressing GLP-1R were determined. The equilibrium affinity (KD) of ligands for the immobilized ectodomain of the GLP-1R were quantified by surface plasmon resonance. […]
(§6) SPR data were analyzed using T200 evaluation software (Cytiva). All data are presented as geometric means with SEM and n values according to established practices. ND, not determined. NA, not applicable.
Target sequence in this assay (P43220 24-463): as above

Test [3] concerns the target T2, GLP-1R. Description: GLP-1R low density cAMP accumulation in HEK293 cells. On the set-up: expressed in transfected cells; host or cells: HEK293. It is filed as cell-based. As for the experimental part: as §1, §3, §4, §5, §6
Target sequence in this assay (P43220 24-463): as above
For test [4], the target named is T2, GLP-1R. Description: GRK2 recruitment to the GLP-1R, NanoBRET. It is filed as cell-based. On the set-up: expressed in transfected cells; host or cells: freestyle HEK cells. Here is the method:
After 48 h, transfected cells were incubated in phosphate-buffered saline (PBS) containing 0.1% (wt/vol) bovine casein and varying concentrations of the ligands. […]
The potency (EC50) and efficacy (% Top) for ligands to induce GLP-1R Internalization were
determined using diffusion-enhanced resonance energy transfer.
relative efficacy for NanoBRET assays. SPR data were analyzed using T200 evaluation software (Cytiva). All data are presented as geometric means with SEM and n values
as §2
Target sequence in this assay (P43220 24-463): as above
Target sequence in this assay (P25098 whole entry partner): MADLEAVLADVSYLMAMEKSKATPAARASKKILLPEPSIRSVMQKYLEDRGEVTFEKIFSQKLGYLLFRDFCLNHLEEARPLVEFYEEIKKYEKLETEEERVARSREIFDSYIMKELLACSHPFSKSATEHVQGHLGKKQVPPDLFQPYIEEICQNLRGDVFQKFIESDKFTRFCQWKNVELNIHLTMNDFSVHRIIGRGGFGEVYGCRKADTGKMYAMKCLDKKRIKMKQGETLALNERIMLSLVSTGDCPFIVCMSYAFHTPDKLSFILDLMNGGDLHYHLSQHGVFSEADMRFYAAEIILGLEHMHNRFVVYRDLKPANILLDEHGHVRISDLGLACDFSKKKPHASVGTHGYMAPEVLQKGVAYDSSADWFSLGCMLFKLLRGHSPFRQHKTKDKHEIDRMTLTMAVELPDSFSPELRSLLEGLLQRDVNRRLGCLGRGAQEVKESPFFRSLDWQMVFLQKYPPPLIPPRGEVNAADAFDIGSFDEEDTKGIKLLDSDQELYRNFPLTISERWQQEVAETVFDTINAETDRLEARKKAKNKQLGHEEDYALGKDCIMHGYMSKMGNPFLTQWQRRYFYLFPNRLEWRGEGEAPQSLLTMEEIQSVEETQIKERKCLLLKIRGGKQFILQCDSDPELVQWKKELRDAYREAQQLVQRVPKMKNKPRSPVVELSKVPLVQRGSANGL

[5] abbreviates: efficacy (% Top), normalized to GLP-1(7-36), (SEM).

With `CC[C@H](C)[C@H](NC(=O)[C@H](CC(C)C)NC(=O)[C@H](Cc1c[nH]c2ccccc12)NC(=O)[C@H](CCC(N)=O)NC(=O)[C@@H](NC(=O)[C@H](Cc1ccccc1)NC(=O)[C@H](C)NC(=O)[C@H](CCCCN)NC(=O)[C@H](CCC(N)=O)NC(=O)[C@H](C)NC(=O)[C@@H](NC(=O)[C@H](CCCCN)NC(=O)[C@H](CC(=O)O)NC(=O)[C@H](CC(C)C)NC(=O)C(C)(C)NC(=O)[C@@H](NC(=O)[C@H](CO)NC(=O)[C@H](Cc1ccc(O)cc1)NC(=O)[C@H](CC(=O)O)NC(=O)[C@H](CO)NC(=O)[C@@H](NC(=O)[C@H](Cc1ccccc1)NC(=O)[C@@H](NC(=O)CNC(=O)[C@H](CCC(=O)O)NC(=O)C(C)(C)NC(=O)[C@@H](N)Cc1ccc(O)cc1)[C@@H](C)O)[C@@H](C)O)[C@@H](C)CC)[C@@H](C)CC)C(C)C)C(=O)N[C@@H](C)C(=O)NCC(=O)NCC(=O)N1CCC[C@H]1C(=O)N[C@@H](CO)C(=O)N[C@@H](CO)C(=O)NCC(=O)N[C@@H](C)C(=O)N1CCC[C@H]1C(=O)N1CCC[C@H]1C(=O)N1CCC[C@H]1C(=O)N[C@@H](CO)C(N)=O` [Tzp∆C20], the EC50 turned out to be 0.0733 nM at human GIPR (Gαs-GTPγS binding, GIPR-expressing membranes, albumin-free, geometric mean (SEM, n), read-out: GIPR GTPγS Recruitment EC50); 5.47 nM on GLP-1R [1] (diffusion-enhanced resonance energy transfer, SNAP-GLP-1R HEK293 cells, 37 °C, geometric mean (SEM, n)); 0.626 nM at GLP-1R [2] (Gαs-GTPγS binding, GLP-1R-expressing membranes, albumin-free, geometric mean (SEM, n), read-out: GLP-1R GTPγS Recruitment EC50); 1.05 nM on GLP-1R [3] (cAMP accumulation, HEK293 cells expressing GLP-1R, albumin-free, geometric mean (SEM, n)); 1.92 nM at GLP-1R [4] (NanoBRET, transfected freestyle HEK cells, PBS with 0.1% casein, geometric mean (SEM, n)). Moreover, the “GIPR GTPγS Recruitment Top” value on human GIPR (efficacy (% Top), normalized to GIP(1-42), (SEM)) is reported as 91.0 (3.5) %. Moreover, at GLP-1R [1] (efficacy (% Top), percent internalization compared to maximal GLP-1, (SEM)), the “GLP-1R Internalization Top” value is 90.6 (3.0) %. The “GLP-1R GTPγS Recruitment Top” value at GLP-1R [2] (setting [5]) is reported as 74.8 (9.1) %. In addition, on GLP-1R [3] (setting [5]), the “GLP-1R Low Density cAMP Top” value was 105 (2) %. The “GLP-1R GRK2 Recruitment Top” value on GLP-1R [4] (efficacy (% Top), relative to maximal GLP-1, (SEM)) was 39.4 (3.7) %.
